Assay results published in publication PMC9481151, “Discovery of new symmetrical and asymmetrical nitrile-containing 1,4-dihydropyridine derivatives as dual kinases and P-glycoprotein inhibitors: synthesis, in vitro assays, and in silico studies” (Journal of Enzyme Inhibition and Medicinal Chemistry, 2022).

Experiments:
NCI-H460 = assay: NCI single dose (10 µM) SRB screen; format: cell-based, human; conditions: non-small cell lung cancer, 48 h
786-0 = assay: NCI single dose (10 µM) SRB screen; format: cell-based, human; conditions: renal cancer, 48 h
SF-268 = assay: NCI single dose (10 µM) SRB screen; format: cell-based, human; conditions: CNS cancer, 48 h
Pseudomonas aeruginosa = assay: Agar well diffusion method
SN12C = assay: NCI single dose (10 µM) SRB screen; format: cell-based, human; conditions: renal cancer, 48 h
SF-539 = assay: NCI single dose (10 µM) SRB screen; format: cell-based, human; conditions: CNS cancer, 48 h
SR = assay: NCI single dose (10 µM) SRB screen; format: cell-based, human; conditions: leukaemia, 48 h
A498 = assay: NCI single dose (10 µM) SRB screen; format: cell-based, human; conditions: renal cancer, 48 h
CCRF-CEM = assay: NCI single dose (10 µM) SRB screen; format: cell-based, human; conditions: leukaemia, 48 h
MDA-MB-231 = assay: NCI single dose (10 µM) SRB screen; format: cell-based, human; conditions: breast cancer, 48 h
SK-OV-3 = assay: NCI single dose (10 µM) SRB screen; format: cell-based, human; conditions: ovarian cancer, 48 h
MALME-3M = assay: NCI single dose (10 µM) SRB screen; format: cell-based, human; conditions: melanoma, 48 h
HL-60(TB) = assay: NCI single dose (10 µM) SRB screen; format: cell-based, human; conditions: leukaemia, 48 h
MDA-MB-468 = assay: NCI single dose (10 µM) SRB screen; format: cell-based, human; conditions: breast cancer, 48 h
OVCAR-3 = assay: NCI single dose (10 µM) SRB screen; format: cell-based, human; conditions: ovarian cancer, 48 h
COLO 205 = assay: NCI single dose (10 µM) SRB screen; format: cell-based, human; conditions: colon cancer, 48 h
PC-3 = assay: NCI single dose (10 µM) SRB screen; format: cell-based, human; conditions: prostate cancer, 48 h
MDA-MB-435 = assay: NCI single dose (10 µM) SRB screen; format: cell-based, human; conditions: melanoma, 48 h
DU-145 = assay: NCI single dose (10 µM) SRB screen; format: cell-based, human; conditions: prostate cancer, 48 h
RPMI-8226 = assay: NCI single dose (10 µM) SRB screen; format: cell-based, human; conditions: leukaemia, 48 h
NCI-H522 = assay: NCI single dose (10 µM) SRB screen; format: cell-based, human; conditions: non-small cell lung cancer, 48 h
HOP-62 = assay: NCI single dose (10 µM) SRB screen; format: cell-based, human; conditions: non-small cell lung cancer, 48 h
SW-620 = assay: NCI single dose (10 µM) SRB screen; format: cell-based, human; conditions: colon cancer, 48 h
OVCAR-8 = assay: NCI single dose (10 µM) SRB screen; format: cell-based, human; conditions: ovarian cancer, 48 h
UACC-62 = assay: NCI single dose (10 µM) SRB screen; format: cell-based, human; conditions: melanoma, 48 h
SNB-75 = assay: NCI single dose (10 µM) SRB screen; format: cell-based, human; conditions: CNS cancer, 48 h
MOLT-4 = assay: NCI single dose (10 µM) SRB screen; format: cell-based, human; conditions: leukaemia, 48 h
RXF 393 = assay: NCI single dose (10 µM) SRB screen; format: cell-based, human; conditions: renal cancer, 48 h
NCI-H23 = assay: NCI single dose (10 µM) SRB screen; format: cell-based, human; conditions: non-small cell lung cancer, 48 h
OVCAR-4 = assay: NCI single dose (10 µM) SRB screen; format: cell-based, human; conditions: ovarian cancer, 48 h
A549/ATCC = assay: NCI single dose (10 µM) SRB screen; format: cell-based, human; conditions: non-small cell lung cancer, 48 h
T-47D = assay: NCI single dose (10 µM) SRB screen; format: cell-based, human; conditions: breast cancer, 48 h
SNB-19 = assay: NCI single dose (10 µM) SRB screen; format: cell-based, human; conditions: CNS cancer, 48 h
HOP-92 = assay: NCI single dose (10 µM) SRB screen; format: cell-based, human; conditions: non-small cell lung cancer, 48 h
LOX IMVI = assay: NCI single dose (10 µM) SRB screen; format: cell-based, human; conditions: melanoma, 48 h
UACC-257 = assay: NCI single dose (10 µM) SRB screen; format: cell-based, human; conditions: melanoma, 48 h
BT-549 = assay: NCI single dose (10 µM) SRB screen; format: cell-based, human; conditions: breast cancer, 48 h
SK-MEL-28 = assay: NCI single dose (10 µM) SRB screen; format: cell-based, human; conditions: melanoma, 48 h
HCC-2998 = assay: NCI single dose (10 µM) SRB screen; format: cell-based, human; conditions: colon cancer, 48 h
NCI 60 cancer cell lines = assay: NCI single dose (10 µM) SRB screen, mean over panel; format: cell-based, human; conditions: mean over 60 cell lines, 48 h
NCI/ADR-RES = assay: NCI single dose (10 µM) SRB screen; format: cell-based, human; conditions: ovarian cancer, 48 h
Staphylococcus aureus = assay: Agar well diffusion method
U251 = assay: NCI single dose (10 µM) SRB screen; format: cell-based, human; conditions: CNS cancer, 48 h
SF-295 = assay: NCI single dose (10 µM) SRB screen; format: cell-based, human; conditions: CNS cancer, 48 h
Bacillus subtilis = assay: Agar well diffusion method
HCT-116 = assay: NCI single dose (10 µM) SRB screen; format: cell-based, human; conditions: colon cancer, 48 h
K-562 = assay: NCI single dose (10 µM) SRB screen; format: cell-based, human; conditions: leukaemia, 48 h
EKVX = assay: NCI single dose (10 µM) SRB screen; format: cell-based, human; conditions: non-small cell lung cancer, 48 h
HCT-15 = assay: NCI single dose (10 µM) SRB screen; format: cell-based, human; conditions: colon cancer, 48 h
MCF7 = assay: NCI single dose (10 µM) SRB screen; format: cell-based, human; conditions: breast cancer, 48 h
NCI-H322M = assay: NCI single dose (10 µM) SRB screen; format: cell-based; conditions: non-small cell lung cancer, 48 h
M14 = assay: NCI single dose (10 µM) SRB screen; format: cell-based, human; conditions: melanoma, 48 h
UO-31 = assay: NCI single dose (10 µM) SRB screen; format: cell-based, human; conditions: renal cancer, 48 h

CCOC(=O)C1=C(C)NC(C)=C(C(=O)OCC)C1c1cccc(C#N)c1 [Compound 1b, Diethyl 4-(3-cyanophenyl)-2,6-dimethyl-1,4-dihydropyridine-3,5-dicarboxylate]
GI% NCI-H460 (NCI-H460): – (Only GI% ≥ 10 are shown) | GI% 786-0 (786-0): – (Only GI% ≥ 10 are shown) | GI% SF-268 (SF-268): – (Only GI% ≥ 10 are shown) | zone of inhibition at 1000 µg/mL (Pseudomonas aeruginosa; Pseudomonas aeruginosa, 24 h, read-out: Diameter of inhibition zone, P. aeruginosa): 10 mm | % activity index, P. aeruginosa (Pseudomonas aeruginosa; relative to ciprofloxacin): 43.5% | GI% SN12C (SN12C): – (Only GI% ≥ 10 are shown) | GI% SF-539 (SF-539): – (Only GI% ≥ 10 are shown) | GI% SR (SR): 48% | GI% A498 (A498): – (Only GI% ≥ 10 are shown) | GI% CCRF-CEM (CCRF-CEM): – (Only GI% ≥ 10 are shown) | GI% MDA-MB-231 (MDA-MB-231): – (Only GI% ≥ 10 are shown) | GI% SK-OV-3 (SK-OV-3): – (Only GI% ≥ 10 are shown) | GI% MALME-3M (MALME-3M): – (Only GI% ≥ 10 are shown) | GI% HL-60(TB) (HL-60(TB)): 13% | GI% MDA-MB-468 (MDA-MB-468): 22% | GI% OVCAR-3 (OVCAR-3): – (Only GI% ≥ 10 are shown) | GI% COLO 205 (COLO 205): – (Only GI% ≥ 10 are shown) | GI% PC-3 (PC-3): 20% | GI% MDA-MB-435 (MDA-MB-435): 42% | GI% DU-145 (DU-145): – (Only GI% ≥ 10 are shown) | GI% RPMI-8226 (RPMI-8226): – (Only GI% ≥ 10 are shown) | GI% NCI-H522 (NCI-H522): 12% | GI% HOP-62 (HOP-62): – (Only GI% ≥ 10 are shown) | GI% SW-620 (SW-620): – (Only GI% ≥ 10 are shown) | GI% OVCAR-8 (OVCAR-8): – (Only GI% ≥ 10 are shown) | GI% UACC-62 (UACC-62): 20% | GI% SNB-75 (SNB-75): 38% | GI% MOLT-4 (MOLT-4): – (Only GI% ≥ 10 are shown) | GI% RXF 393 (RXF 393): 10% | GI% NCI-H23 (NCI-H23): – (Only GI% ≥ 10 are shown) | GI% OVCAR-4 (OVCAR-4): – (Only GI% ≥ 10 are shown) | GI% A549/ATCC (A549/ATCC): – (Only GI% ≥ 10 are shown) | GI% T-47D (T-47D): 23% | GI% SNB-19 (SNB-19): – (Only GI% ≥ 10 are shown) | GI% HOP-92 (HOP-92): 10% | GI% LOX IMVI (LOX IMVI): – (Only GI% ≥ 10 are shown) | GI% UACC-257 (UACC-257): – (Only GI% ≥ 10 are shown) | GI% BT-549 (BT-549): – (Only GI% ≥ 10 are shown) | GI% SK-MEL-28 (SK-MEL-28): – (Only GI% ≥ 10 are shown) | GI% HCC-2998 (HCC-2998): – (Only GI% ≥ 10 are shown) | Mean GI% (NCI 60 cancer cell lines): 8% | GI% NCI/ADR-RES (NCI/ADR-RES): – (Only GI% ≥ 10 are shown) | zone of inhibition at 1000 µg/mL (Staphylococcus aureus; Staphylococcus aureus, 24 h, read-out: Diameter of inhibition zone, S. aureus): 14 mm | % activity index, S. aureus (Staphylococcus aureus; relative to ciprofloxacin): 58.3% | GI% U251 (U251): – (Only GI% ≥ 10 are shown) | GI% SF-295 (SF-295): – (Only GI% ≥ 10 are shown) | zone of inhibition at 1000 µg/mL (Bacillus subtilis; Bacillus subtilis, 24 h, read-out: Diameter of inhibition zone, B. subtilis): 9 mm | % activity index, B. subtilis (Bacillus subtilis; relative to ciprofloxacin): 39.1% | GI% HCT-116 (HCT-116): 11% | GI% K-562 (K-562): 43% | GI% EKVX (EKVX): – (Only GI% ≥ 10 are shown) | GI% HCT-15 (HCT-15): 23% | GI% MCF7 (MCF7): 15% | GI% NCI-H322M (NCI-H322M): – (Only GI% ≥ 10 are shown) | GI% M14 (M14): – (Only GI% ≥ 10 are shown) | GI% UO-31 (UO-31): 13%
